Test results as given in publication PMC7172207 (Bioorganic & Medicinal Chemistry Letters, 2019).

Columns and labels:
DENV2 [1] = assay: Immunofluorescence assay of DENV2 infectivity; assay type: cell-based, Dengue virus type 2 (strain 16681); conditions: for rate of NS4B-positive cells: Vero E6, DENV2-infected, 96 h
DENV2 [2] = assay: Anti-DENV2 activity in human lung epithelial A549 cells; assay type: cell-based, Dengue virus type 2; conditions: DENV2 MOI 0.01, 120 h

## CC1(C)[C@@H](O[C@H]2O[C@H](C(=O)O)[C@@H](O)[C@H](O)[C@H]2O[C@@H]2O[C@H](C(=O)O)[C@@H](O)[C@H](O)[C@H]2O)CC[C@]2(C)[C@H]3C(=O)C=C4[C@@H]5C[C@@](C)(C(=O)O)CC[C@]5(C)CC[C@@]4(C)[C@]3(C)CC[C@@H]12 [Compound 1, Glycyrrhizic acid, reference compound]
DENV2 [1]; Vero E6 cells
  TI (CC50/IC50): ˃12.3

## COC(=O)[C@H](CCSC)NC(=O)[C@H]1O[C@@H](O[C@H]2[C@@H](O[C@H]3CC[C@]4(C)[C@H]5C(=O)C=C6[C@@H]7C[C@@](C)(C(=O)N[C@@H](CCSC)C(=O)OC)CC[C@]7(C)CC[C@@]6(C)[C@]5(C)CC[C@H]4C3(C)C)O[C@H](C(=O)N[C@@H](CCSC)C(=O)OC)[C@@H](O)[C@@H]2O)[C@H](O)[C@@H](O)[C@@H]1O [Compound 6]
DENV2 [1]; Vero E6 cells
  TI (CC50/IC50): ˃22.2

## CC[C@H](C)[C@H](NC(=O)[C@H]1O[C@@H](O[C@H]2[C@@H](O[C@H]3CC[C@]4(C)[C@H]5C(=O)C=C6[C@@H]7C[C@@](C)(C(=O)N[C@H](C(=O)O)[C@@H](C)CC)CC[C@]7(C)CC[C@@]6(C)[C@]5(C)CC[C@H]4C3(C)C)O[C@H](C(=O)N[C@H](C(=O)O)[C@@H](C)CC)[C@@H](O)[C@@H]2O)[C@H](O)[C@@H](O)[C@@H]1O)C(=O)O [Compound 13]
DENV2 [1]; 0.1 μM compound
  rate of NS4B-positive cells: 37.2%
DENV2 [1]; 1 μM compound
  rate of NS4B-positive cells: 29.4%
DENV2 [1]; 10 μM compound
  rate of NS4B-positive cells: 1.6%
DENV2 [2]
  anti-DENV2 activity in A549 cells (in words): potent anti-DENV2 activity

## CC1(C)[C@@H](O[C@H]2O[C@H](C(=O)N[C@@H](Cc3ccccc3)C(=O)O)[C@@H](O)[C@H](O)[C@H]2O[C@@H]2O[C@H](C(=O)N[C@@H](Cc3ccccc3)C(=O)O)[C@@H](O)[C@H](O)[C@H]2O)CC[C@]2(C)[C@H]3C(=O)C=C4[C@@H]5C[C@@](C)(C(=O)N[C@@H](Cc6ccccc6)C(=O)O)CC[C@]5(C)CC[C@@]4(C)[C@]3(C)CC[C@@H]12 [Compound 14]
DENV2 [1]; Vero E6 cells, CPE test and NS4B-positive cells
  anti-DENV2 activity (in words): dropped the anti-DENV activity
